Laboratory results published in patent US9624286B2, “Composition comprising peptide derived from adiponectin” (KNU-INDUSTRY COOPERATION FOUNDATION, priority 2013, dated 2017).

How the values were obtained:
[1] = system: NIH3T3 cells; test: Tests for facilitating the proliferation of mouse fibroblast cell line NIH3T3 (CCK-8); type: cell-based; conditions: peptide 10 μM; 24, 48 and 72 hours; CCK-8 absorbance at 475 nm; FIG. 1
Method: The NIH3T3 cells (mouse fibroblast cell line, ATCC CRL-1658, USA), along with 100 μl of Dulbecco's Modified Eagle medium (DMEM), were added to each well of the 96-well microplate in the concentration of 5×10^3 cells per well, and then cultured in a 5% CO2 incubator at 37° C. for 24 hours. The peptide solutions (100 μl) having the respective peptide of SEQ ID NOs: 1, 2, 3 and 5 in the concentration of 10 μM were added to each well. While incubating the cells for 24, 48, and 72 hours therefrom, 10 μl of CCK-8 (Dojindo Laboratories, Japan) was added to each well and then the respective absorbance at 475 nm was measured with Spectramax plus 190 plate reader (Molecular Devices, USA).

[2] = system: procollagen type-1; test: Activation of the procollagen type-1 expression in fibroblasts (Western blotting); type: cell-based, mouse; conditions: NIH3T3 cells, peptide 0.1, 1 and 10 μM, 48 hours, concentration-dependent, FIG. 2
Method: Since facilitation of the collagen fiber synthesis is one of the principal means for inhibiting skin aging, we evaluate whether the collagen synthesis in fibroblasts is facilitated by the treatment of the peptides of the present invention, using the NIH3T3 cells (mouse fibroblast cell line, ATCC CRL-1658, USA). The fibroblasts were treated with the peptides of SEQ ID NOs: 1, 2, 3 and 5, in the concentrations of 0.1, 1 and 10 μM, respectively. After 48 hours, the cell extracts were subject to the Western blotting assay so as to measure the expressions of procollagen type-1. […] Therefore, it can be seen that the peptides of the present invention can inhibit skin aging derived from loss of collagen, especially skin wrinkle.

[3] = system: profilaggrin; test: Control of the profilaggrin expression in human keratinocyte cell line HaCaT (Western blotting); type: cell-based; conditions: HaCaT cells, peptide 0.1, 1.0 and 10 μM, 48 hours, concentration-dependent, FIG. 3
Method: Since profilaggrin is one of the principal elements for constituting skin barrier, we evaluate whether the profilaggrin synthesis in keratinocytes is facilitated by the treatment of the peptides of the present invention, using the HaCaT cells (human keratinocyte cell line, DKFZ, Heidelberg, Germany). The HaCaT cells were treated with the peptides of SEQ ID NOs: 3 and 5, in the concentrations of 0.1, 1.0 and 10 μM. After 48 hours, the cell extracts were subject to the Western blotting assay so as to measure the expressions of profilaggrin. […] Therefore, it can be seen that the peptides of the present invention have a skin-moisturizing activity through facilitating the profilaggrin expression.

Substance	proliferations of NIH3T3 cells [1]	expressions of procollagen type-1 [2]	expressions of profilaggrin [3]
Phe-Thr-Tyr (FTY; Peptide fragment) [SEQ ID NO: 5, adiponectin-derived peptide fragment]	significantly increased	increased	increased
Leu-Phe-Thr-Tyr-Asp (LFTYD; Peptide fragment) [SEQ ID NO: 3, adiponectin-derived peptide fragment]	significantly increased	increased	increased
His-Ile-Thr (HIT; Peptide fragment) [SEQ ID NO: 2, adiponectin-derived peptide fragment]	significantly increased	increased	
Tyr-His-Ile-Thr (YHIT; Peptide fragment) [SEQ ID NO: 1, adiponectin-derived peptide fragment]	significantly increased	increased	
